Assay: xn = mol fraction of the nth substance listed
Settings: 96.7 kPa, Liquid; for viscosity: Capillary tube (Ostwald / Ubbelohde) method; for mass density: Vibrating tube method

CCCCCCn1cc[n+](C)c1.[Cl-] [1-hexyl-3-methylimidazolium chloride] + CC(=O)N(C)C
Settings | mass density [kg/m3] | viscosity [mPa·s]
303.15 K, x1 = 0.155 | 967.16 | 3.756
303.15 K, x1 = 0.301 | 989.75 | 14.88
303.15 K, x1 = 0.392 | 999.94 | 35.44
303.15 K, x1 = 0.503 | 1009.66 | 92.11
303.15 K, x1 = 0.63 | 1018.78 | 295.88
303.15 K, x1 = 0.794 | 1027.67 | 917.88
303.15 K, x1 = 0.887 | 1032.11 | 2891.3
303.15 K, x1 = 1 | 1036.07 | 5718.5
308.15 K, x1 = 0.155 | 962.92 | 3.352
308.15 K, x1 = 0.301 | 986.11 | 12.57
308.15 K, x1 = 0.392 | 996.46 | 28.6
308.15 K, x1 = 0.503 | 1006.34 | 70.17
308.15 K, x1 = 0.63 | 1015.69 | 212.96
308.15 K, x1 = 0.794 | 1024.64 | 624.84
308.15 K, x1 = 0.887 | 1029.11 | 1853.1
308.15 K, x1 = 1 | 1033.22 | 3430.8
313.15 K, x1 = 0.155 | 958.82 | 3.026
313.15 K, x1 = 0.301 | 982.47 | 10.74
313.15 K, x1 = 0.392 | 992.99 | 23.52
313.15 K, x1 = 0.503 | 1003.03 | 55.61
313.15 K, x1 = 0.63 | 1012.58 | 158.14
313.15 K, x1 = 0.794 | 1021.62 | 440.38
313.15 K, x1 = 0.887 | 1026.14 | 1212.9
313.15 K, x1 = 1 | 1030.38 | 2146.1
318.15 K, x1 = 0.155 | 954.87 | 2.739
318.15 K, x1 = 0.301 | 978.83 | 9.242
318.15 K, x1 = 0.392 | 989.54 | 19.54
318.15 K, x1 = 0.503 | 999.74 | 44.26
318.15 K, x1 = 0.63 | 1009.45 | 119.42
318.15 K, x1 = 0.794 | 1018.61 | 313.65
318.15 K, x1 = 0.887 | 1023.19 | 814.85
318.15 K, x1 = 1 | 1027.56 | 1390.4
323.15 K, x1 = 0.155 | 951 | 2.493
323.15 K, x1 = 0.301 | 975.21 | 8.018
323.15 K, x1 = 0.392 | 986.09 | 16.46
323.15 K, x1 = 0.503 | 996.46 | 35.84
323.15 K, x1 = 0.63 | 1006.33 | 91.95
323.15 K, x1 = 0.794 | 1015.58 | 229.39
323.15 K, x1 = 0.887 | 1020.2 | 563.41
323.15 K, x1 = 1 | 1024.75 | 928.1
328.15 K, x1 = 0.155 | 947.22 | 2.28
328.15 K, x1 = 0.301 | 971.59 | 7.038
328.15 K, x1 = 0.392 | 982.65 | 14
328.15 K, x1 = 0.503 | 993.19 | 29.41
328.15 K, x1 = 0.63 | 1003.22 | 71.92
328.15 K, x1 = 0.794 | 1012.63 | 171.63
328.15 K, x1 = 0.887 | 1017.33 | 400.32
328.15 K, x1 = 1 | 1021.92 | 638.79
333.15 K, x1 = 0.155 | 943.5 | 2.091
333.15 K, x1 = 0.301 | 967.98 | 6.213
333.15 K, x1 = 0.392 | 979.22 | 12.02
333.15 K, x1 = 0.503 | 989.93 | 24.45
333.15 K, x1 = 0.63 | 1000.11 | 57.41
333.15 K, x1 = 0.794 | 1009.73 | 130.32
333.15 K, x1 = 0.887 | 1014.53 | 291.17
333.15 K, x1 = 1 | 1019.13 | 453.59
338.15 K, x1 = 0.155 | 939.77 | 1.931
338.15 K, x1 = 0.301 | 964.37 | 5.522
338.15 K, x1 = 0.392 | 975.8 | 10.41
338.15 K, x1 = 0.503 | 986.68 | 20.82
338.15 K, x1 = 0.63 | 997.03 | 46.28
338.15 K, x1 = 0.794 | 1006.85 | 101.08
338.15 K, x1 = 0.887 | 1011.76 | 216.49
338.15 K, x1 = 1 | 1016.38 | 327.52
343.15 K, x1 = 0.155 | 935.94 | 1.786
343.15 K, x1 = 0.301 | 960.77 | 4.918
343.15 K, x1 = 0.392 | 972.39 | 9.14
343.15 K, x1 = 0.503 | 983.44 | 17.42
343.15 K, x1 = 0.63 | 993.95 | 37.9
343.15 K, x1 = 0.794 | 1003.99 | 79.83
343.15 K, x1 = 0.887 | 1009.01 | 163.62
343.15 K, x1 = 1 | 1013.65 | 243.04
348.15 K, x1 = 0.155 | 932.05 | 1.658
348.15 K, x1 = 0.301 | 957.18 | 4.443
348.15 K, x1 = 0.392 | 968.98 | 8.018
348.15 K, x1 = 0.503 | 980.22 | 14.93
348.15 K, x1 = 0.63 | 990.89 | 31.38
348.15 K, x1 = 0.794 | 1001.15 | 63.75
348.15 K, x1 = 0.887 | 1006.28 | 125.96
348.15 K, x1 = 1 | 1010.91 | 183.45
353.15 K, x1 = 0.155 | 928.09 | 1.542
353.15 K, x1 = 0.301 | 953.59 | 4.015
353.15 K, x1 = 0.392 | 965.58 | 7.115
353.15 K, x1 = 0.503 | 977 | 12.86
353.15 K, x1 = 0.63 | 987.84 | 26.46
353.15 K, x1 = 0.794 | 998.33 | 51.4
353.15 K, x1 = 0.887 | 1003.57 | 98.54
353.15 K, x1 = 1 | 1008.18 | 140.06

Source: the NIST ThermoML archive (doi:10.1016/j.jct.2017.07.016)
